According to article PMC8709388, “In Search of Small Molecules That Selectively Inhibit MBOAT4” (Molecules, 2021):
Where a SMILES comes first, the peptide text is derived from it. Where no end group is shown, it is not given here. [ ]: non-standard residue; d: D form. The star is where a group is joined. Tle = CC(C)(C)[C@H](N)C(=O)O; Octanoyl = CCCCCCCC(=O)*; Dap = NC[C@H](N)C(=O)O; Sar = CNCC(=O)O

Legend:
GOAT = conditions: cited from earlier work
mouse GOAT = biological target: T1, mouse GOAT (Mus musculus, UniProt P0C7A3); assay: Acyltransferase assay: inhibition of proghrelin octanoylation by GOAT in sf9 membrane fractions; format: biochemical; conditions: for IC50: read-out: IC50 (GOAT, membrane fraction, in-house); for GOAT inhibition in vitro (in words): membrane fractions
T1 construct: made in house; host or cells: sf9 insect cells (baculovirus, pFastBac1-mouseGOAT); total membrane fraction, not purified
T1 sequence (P0C7A3 1-435): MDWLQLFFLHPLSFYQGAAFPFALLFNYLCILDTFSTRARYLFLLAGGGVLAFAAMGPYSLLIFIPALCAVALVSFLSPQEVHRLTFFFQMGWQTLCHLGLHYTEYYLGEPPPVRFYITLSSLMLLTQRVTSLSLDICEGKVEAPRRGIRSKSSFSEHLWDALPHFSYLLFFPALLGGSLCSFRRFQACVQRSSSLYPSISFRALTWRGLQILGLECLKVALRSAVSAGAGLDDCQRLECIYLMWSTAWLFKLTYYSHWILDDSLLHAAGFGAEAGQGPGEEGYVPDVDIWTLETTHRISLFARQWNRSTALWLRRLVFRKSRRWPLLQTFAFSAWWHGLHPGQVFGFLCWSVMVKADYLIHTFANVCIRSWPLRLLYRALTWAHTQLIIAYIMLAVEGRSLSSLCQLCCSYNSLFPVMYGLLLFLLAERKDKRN
Experimental: pFastBac1-mouseGOAT and pGEX-GST-proGhrelin8His plasmid encoding for mouse proghrelin, fused to GST with TEV cleavage site to release proghrelin moiety, was a kind gift from the Brown and Goldstein laboratory. The BL21Gold E. coli chemically competent cells were transformed with the pGEX-GST-proGhrelin8His plasmid and selected on agar plates with ampicillin. A few colonies were used to inoculate 50 mL LB, and cultures were grown overnight at 37 °C. The next morning, 10 mL of overnight culture was used to inoculate 1L LB. A total of 4 flasks with 1L LB each were inoculated with 10 mL of the overnight culture, and bacterial cultures were grown at 37 °C until they reached OD600 ~ 0.6. The cultures were chilled on ice for 30 min and then 0.25 mM of IPTG was added to each culture. The cultures were then moved back to a shaker set to 18 °C and incubated overnight. Cells were harvested and resuspended in 200 mL buffer containing 25 mM Tris-HCl pH 8.0, 150 mM NaCl, 1 mM EDTA and 0.5 mg/mL lysozyme. The cell suspension was sonicated, and cell debris was removed by centrifugation. The soluble fraction was passed through glutathione resin by gravity. The resin was washed with 75 mL of lysis buffer without lysozyme. The GST-proGhrelin8His protein was eluted with lysis buffer without lysozyme, supplemented with 15 mM reduced glutathione, GSH. About 50 mg of target protein, as evaluated by SDS-PAGE, was eluted. The eluate was supplemented with 1 mM DTT and about 7.5 mg of recombinant GST-TEV protease (see below) was added. The solution was incubated at 16 °C overnight to allow complete release of proghrelin8His from GST. Prior to Ni-NTA chromatography, 5 mM CaCl2 was added, and the solution was spun down at 4000× g for 10 min. After elution from Ni-NTA resin, protein solution was dialyzed against buffer containing 10 mM Tris-HCl pH 8.5, 50 mM NaCl, 10% glycerol and 0.01% CHAPS using 3 kDa cutoff membrane with 3 buffer exchanges. The protein was quantified by absorbance at A280 and qualified by SDS-PAGE.
The baculovirus expression of mouse GOAT. DH10Bac E. coli strain (ThermoFisher, Waltham, MA, USA) was transformed with pFastBac1-mouseGOAT plasmid, and Bacmid DNA from 12 white colonies was analyzed by DNA sequencing and PCR reaction. All clones were transfected to sf9 cells and level of mGOAT expression was compared between clones from cells producing P2. The clone with the highest mGOAT expression level was used to produce P3. For membrane isolation, sf9 cells were seeded at 2–4 × 10^6 /mL in total 1 L volume of sf-900 serum-free medium (ThermoFisher) and infected with P3 virus. At day 2 post-infection, cells were harvested and resuspended in 40 mL of buffer containing 50 mM NaPi pH 7.2, 150 mM NaCl, 1 mM EDTA, 100 μM bis (4-nitrophenyl) phosphate, 2.5 μg/mL aprotinin, 10 μg/mL leupeptin, 10 μg/mL pepstatin A. Cell suspension was briefly sonicated and cell debris was removed by centrifugation at 3000× g for 10 min. Membrane fraction was collected from supernatant by centrifugation at 100,000× g for 1 h. Membrane pellet was resuspended in storage buffer (50 mM NaPi pH 7.2, 150 mM NaCl and 10% glycerol) and kept at −80 °C. Acyltransferase assay: The assay conditions included per 50 μL reaction: 50 μg of total sf9 membranes, various (for modality experiment) or fixed (for IC50) concentrations of recombinant proghrelin8His peptide and various concentrations of tested compound (for IC50), 100 μM palmitoyl CoA, 50 mM HEPES pH 7.0 and 1 μM [^3H] octanoyl CoA (~5.5 dpm/fmol—American Radioactive Chemicals). After incubation of the reaction mixture at 37C for 10 min, tubes were placed on ice and 10 μL of 1M HCl was added to each tube. Following the addition of 740 μL of cold quench buffer (50 mM NaPi pH 7.4, 10 mM Imidazole, 150 mM NaCl, 100 μM bis (4-nitrophenyl) phosphate, 1 mM phenylmethylsulfonyl fluoride and 0.1% Triton), 0.2 mL of 50% Ni-NTA slurry was added to each reaction. […]

Pharmacokinetics in mice = format: in vivo
[1] = sf9 membranes containing mouse GOAT, [3H]octanoyl CoA, proghrelin8His

Row | IC50 (mouse GOAT; [1]) [nM] | GOAT inhibition in vitro (in words) (mouse GOAT) | Compound | further results
1 | – | – | 1: GOAT reaction product, acyl ghrelin, 28-residue lipopeptide octanoylated at Ser3 (GSS(Octanoyl)FLSPEHQRVQQRKESKKPPAKLQPR; UniProt Q9UBU3 24-51, looked up) [compound 1] | GOAT inhibition (in words) (GOAT): weakly inhibited
2 | – | – | O=C(O)c1ccc2oc(SCc3ccc(Cl)cc3Cl)nc2c1 [compound 7] | mode of GOAT inhibition (GOAT): competed at the CoA site on GOAT
3 | 14 | – | CCCCCCCC(=O)NC[C@H](NC(=O)[C@@H](NC(=O)CNC)C(C)(C)C)C(=O)N[C@@H](Cc1ccccc1)C(N)=O [compound 8] (H-[Sar][Tle][Dap](Octanoyl)F-NH2) | –
4 | > 1000 | inactive | CCCCCCCC(=O)NC[C@H](NC(=O)[C@@H](NC(=O)CNC)C(C)(C)C)C(N)=O [compound 12] (H-[Sar]-[Tle]-[Dap](Octanoyl)-NH2) | –
5 | 50 | – | CCCCCCCC(=O)NC[C@H](NC(=O)[C@@H](NC(=O)CNC)C(C)(C)C)C(=O)N[C@@H](Cc1ccccc1)C(=O)N[C@@H](CC(C)C)C(N)=O [compound 13] (H-[Sar][Tle][Dap](Octanoyl)FL-NH2) | oral bioavailability (Pharmacokinetics in mice): low; pharmacokinetics (Pharmacokinetics in mice): poor
6 | 62 | – | CCCCCCCC(=O)NC[C@H](NC(=O)[C@@H](NC(=O)CNC)C(C)(C)C)C(=O)N[C@@H](Cc1ccccc1)C(=O)N[C@@H](CC(C)C)C(=O)N[C@@H](CO)C(N)=O [compound 14] (H-[Sar][Tle][Dap](Octanoyl)FLS-NH2) | –
7 | 96 | – | CCCCCCCC(=O)NC[C@H](NC(=O)[C@@H](NC(=O)CNC)C(C)(C)C)C(=O)N[C@@H](Cc1ccccc1)C(=O)N[C@@H](CC(C)C)C(=O)N[C@@H](CO)C(=O)N1CCC[C@H]1C(N)=O [compound 15] (H-[Sar][Tle][Dap](Octanoyl)FLSP-NH2) | –
8 | – | significantly impaired | C[C@H](NC(=O)c1ccnn1C)C(=O)N1CCC(CCCc2cc(N)c3nonc3n2)CC1 [compound 35, (S)-N-(1-(4-(3-(7-amino-[1,2,5]oxadiazolo[3,4-b]pyridin-5-yl)propyl)pip-eridin-1-yl)-1-oxopropan-2-yl)-1-methyl-1H-pyrazole-5-carboxamide] | IC50 (GOAT, membrane fraction, in-house) (mouse GOAT; [1]): inactive
9 | – | – | N-(((3S,6S,9S)-9-(2-aminoacetamido)-3-benzyl-10,10-dimethyl-5,8-dioxo-1,11-dioxa-4,7-diazacyclopentadec-13-en-6-yl)methyl)octanamide [17a] | mode of GOAT inhibition (mouse GOAT; reaction rates at varied substrate concentrations, fixed inhibitor concentration): competing for the peptide substrate

Row | Compound | IC50 (mouse GOAT; [1]) [nM] | GOAT inhibition in vitro (in words) (mouse GOAT) | further results
10 | CCCCOCC(=O)N1CCC(/C=C\c2c(C)nc3nonc3c2N)CC1 [compound 25, (Z)-1-(4-(2-(7-amino-5-methyl-[1,2,5]oxadiazolo[3,4-b]pyridin-6-yl)vinyl)piperidin-1-yl)-2-butoxyethan-1-one] | 440 | significantly impaired | –
